According to PubChem BioAssay AID316 (DTP/NCI, 2004):
Several values for one entry are separate records, joined by “and”; a condition that tells them apart may be missing. Identical values can stand only once. Inconclusive results and toxic doses are left out.

Test system: P1534 leukemia ip, CD2F1 mice, survival T/C
Assay: NCI In Vivo Anticancer Drug Screen. Data for tumor model P1534 Leukemia (intraperitoneal) in CD2F1 (CDF1) mice
Details: higher = longer survival
Protocol: The antitumor activity of compounds was measured in mice bearing transplantable tumors. Survival or tumor size were measured and the results are expressed as the measurement made in the treated group (T) divided by the measurement made in the vehicle treated control group (C). The tumor model used in this assay is P1534 Leukemia (intraperitoneal) in CD2F1 (CDF1) mice

[1] = endpoint: mean survival time, dose: 150.0 mg/kg/injection, schedule: Q01DX010 (ip), vehicle: water
[2] = endpoint: mean survival time, dose: 200.0 mg/kg/injection, schedule: Q01DX010 (ip), vehicle: water
[3] = endpoint: mean survival time, dose: 50.0 mg/kg/injection, schedule: Q01DX010 (ip), vehicle: saline
[4] = endpoint: mean survival time, dose: 100.0 mg/kg/injection, schedule: Q01DX010 (ip), vehicle: saline
[5] = endpoint: mean survival time, dose: 200.0 mg/kg/injection, schedule: Q01DX010 (ip), vehicle: saline
[6] = endpoint: mean survival time, dose: 12.5 mg/kg/injection, schedule: Q01DX010 (ip), vehicle: saline
[7] = endpoint: mean survival time, dose: 25.0 mg/kg/injection, schedule: Q01DX010 (ip), vehicle: saline
[8] = endpoint: mean survival time, dose: 6.25 mg/kg/injection, schedule: Q01DX010 (ip), vehicle: saline
[9] = endpoint: mean survival time, dose: 8.0 mg/kg/injection, schedule: Q01DX010 (ip), vehicle: saline
[10] = endpoint: mean survival time, dose: 16.0 mg/kg/injection, schedule: Q01DX010 (ip), vehicle: saline
[11] = endpoint: mean survival time, dose: 32.0 mg/kg/injection, schedule: Q01DX010 (ip), vehicle: saline
[12] = endpoint: mean survival time, dose: 400.0 mg/kg/injection, schedule: Q01DX010 (ip), vehicle: saline
[13] = endpoint: mean survival time, dose: 62.5 mg/kg/injection, schedule: Q01DX010 (ip), vehicle: saline
[14] = endpoint: mean survival time, dose: 125.0 mg/kg/injection, schedule: Q01DX010 (ip), vehicle: saline
[15] = endpoint: mean survival time, dose: 250.0 mg/kg/injection, schedule: Q01DX010 (ip), vehicle: saline
[16] = endpoint: mean survival time, dose: 12.5 mg/kg/injection, schedule: Q01DX010 (sc), vehicle: steriod suspending solution
[17] = endpoint: mean survival time, dose: 25.0 mg/kg/injection, schedule: Q01DX010 (sc), vehicle: steriod suspending solution
[18] = endpoint: mean survival time, dose: 50.0 mg/kg/injection, schedule: Q01DX010 (sc), vehicle: steriod suspending solution
[19] = endpoint: mean survival time, dose: 100.0 mg/kg/injection, schedule: Q01DX010 (sc), vehicle: steriod suspending solution
[20] = endpoint: mean survival time, dose: 100.0 mg/kg/injection, schedule: Q01DX010 (ip), vehicle: water

CC(C)=CCC1=C(O)c2ccccc2C(=O)C1=O
T/C (endpoint: mean survival time, dose: 200.0 mg/kg/injection, schedule: Q01DX010 (oral), vehicle: other): 102 % of control
T/C (endpoint: mean survival time, dose: 300.0 mg/kg/injection, schedule: Q01DX010 (oral), vehicle: other): 115 % of control
T/C (endpoint: mean survival time, dose: 400.0 mg/kg/injection, schedule: Q01DX010 (oral), vehicle: other): 112 % of control
T/C (endpoint: mean survival time, dose: 600.0 mg/kg/injection, schedule: Q01DX010 (oral), vehicle: other): 103 % of control

Cc1cc(C)n(C(N)=O)n1
T/C [1]: 96 % of control
T/C [2]: 111 % of control

COC(=O)C1=COC(C)C2CN3CCc4c([nH]c5cc(OC)c(OC)cc45)C3CC12 (stereo not drawn)
T/C [3]: 96 % of control
T/C [4]: 100 % of control
T/C [5]: 100 % of control

OC(CBr)C(O)C(O)C(O)CBr (stereo not drawn)
T/C [6]: 103 % of control
T/C [7]: 103 % of control
T/C [3]: 103 % of control
T/C [4]: 103 % of control

N=[N+]=CC(=O)OCC(N)C(=O)O (stereo not drawn)
T/C (endpoint: mean survival time, dose: 6.25 mg/kg/injection, schedule: Q01DX010 (ip), vehicle: other): 155 % of control
T/C (endpoint: mean survival time, dose: 15.5 mg/kg/injection, schedule: Q01DX010 (ip), vehicle: saline): 119 % of control

CS(=O)(=O)OCCCCOS(C)(=O)=O
T/C [8]: 106 % of control and 88 % of control
T/C [6]: 88 % of control and 100 % of control
T/C [7]: 112 % of control and 88 % of control
T/C [3]: 112 % of control and 100 % of control

O=C(Nc1ccc(C2=NCCN2)cc1)c1cccc(C(=O)Nc2ccc(C3=NCCN3)cc2)c1
T/C [9]: 109 % of control
T/C [10]: 118 % of control
T/C [11]: 154 % of control
T/C (endpoint: mean survival time, dose: 64.0 mg/kg/injection, schedule: Q01DX010 (ip), vehicle: saline): 163 % of control and 168 % of control

CC(O)CCc1ccc(OC(=O)c2ccccc2)cc1 (stereo not drawn)
T/C [3]: 89 % of control
T/C [4]: 93 % of control
T/C [5]: 89 % of control
T/C [12]: 93 % of control

Cc1ccccn1
T/C [13]: 96 % of control
T/C [14]: 100 % of control
T/C [15]: 96 % of control

NCCc1ccccc1
T/C (endpoint: mean survival time, dose: 15.6 mg/kg/injection, schedule: Q01DX010 (ip), vehicle: saline): 96 % of control
T/C (endpoint: mean survival time, dose: 31.3 mg/kg/injection, schedule: Q01DX010 (ip), vehicle: saline): 92 % of control
T/C [13]: 100 % of control

O=C(CCCNC(=O)OCc1ccccc1)NCCCCCCCCCCNC(=O)CCCNC(=O)OCc1ccccc1
T/C [3]: 89 % of control
T/C [4]: 89 % of control

CC(CCc1ccc(OC(=O)c2ccccc2)cc1)OC(=O)c1ccccc1 (stereo not drawn)
T/C [3]: 96 % of control
T/C [4]: 89 % of control
T/C [5]: 86 % of control
T/C [12]: 89 % of control

C[C@]12C=CC(=O)C=C1CC[C@@H]1[C@@H]2CC[C@]2(C)OC(=O)CC[C@@H]12
T/C [16]: 107 % of control
T/C [17]: 107 % of control
T/C [18]: 107 % of control
T/C [19]: 100 % of control

CN(C)/N=N/c1nc[nH]c1C(N)=O
T/C [8]: 100 % of control
T/C [6]: 107 % of control
T/C [7]: 103 % of control
T/C [3]: 107 % of control

CCc1c(CC(=O)O)c2cc(C)ccc2n1Cc1ccc(Cl)cc1
T/C [3]: 107 % of control

CC(=O)[C@@]1(O)CC[C@H]2[C@@H]3C[C@H](C)C4=CC(=O)C=C[C@]4(C)[C@@]3(F)[C@@H](O)C[C@@]21C
T/C [16]: 107 % of control
T/C [17]: 107 % of control
T/C [18]: 107 % of control
T/C [19]: 100 % of control

CCNc1nncs1
T/C [9]: 100 % of control
T/C [10]: 96 % of control

CNC(C)C(O)c1ccccc1 (stereo not drawn)
T/C (endpoint: mean survival time, dose: 37.5 mg/kg/injection, schedule: Q01DX010 (ip), vehicle: saline): 96 % of control
T/C (endpoint: mean survival time, dose: 75.0 mg/kg/injection, schedule: Q01DX010 (ip), vehicle: saline): 92 % of control

Cn1c(=O)c2c(ncn2C)n(C)c1=O
T/C [7]: 100 % of control
T/C [3]: 100 % of control
T/C [4]: 100 % of control

NC1=NNC(=O)C1
T/C [20]: 95 % of control
T/C [1]: 95 % of control

CCCCCCCCCCCCNCCCCCCCCCCCC
T/C (endpoint: mean survival time, dose: 5.0 mg/kg/injection, schedule: Q01DX010 (ip), vehicle: other): 106 % of control
T/C (endpoint: mean survival time, dose: 10.0 mg/kg/injection, schedule: Q01DX010 (ip), vehicle: other): 98 % of control

Cc1[nH]ncc1Br
T/C [20]: 95 % of control
T/C [1]: 98 % of control

O=NN(CCCl)C(=O)NCCCl
T/C [8]: 265 % of control and 290 % of control
T/C [6]: 150 % of control and 170 % of control

Nc1nc(N)c2nc(CNc3ccc(C(=O)NC(CCC(=O)O)C(=O)O)cc3)cnc2n1 (stereo not drawn)
T/C (endpoint: mean survival time, dose: 25.0 micrograms/kg/injection, schedule: Q01DX010 (ip), vehicle: other): 109 % of control
T/C (endpoint: mean survival time, dose: 50.0 micrograms/kg/injection, schedule: Q01DX010 (ip), vehicle: other): 113 % of control and 122 % of control
T/C (endpoint: mean survival time, dose: 100.0 micrograms/kg/injection, schedule: Q01DX010 (ip), vehicle: other): 159 % of control
T/C (endpoint: mean survival time, dose: 200.0 micrograms/kg/injection, schedule: Q01DX010 (ip), vehicle: other): 95 % of control and 100 % of control
T/C (endpoint: median survival time, dose: 0.05 mg/kg/injection, schedule: Q01DX009 (ip), vehicle: sodium bicarbonate): 164 % of control
T/C (endpoint: median survival time, dose: 0.1 mg/kg/injection, schedule: Q01DX009 (ip), vehicle: sodium bicarbonate): 93 % of control

OCC1OC(n2cnc3c(Cl)ncnc32)C(O)C1O (stereo not drawn)
T/C [13]: 94 % of control and 100 % of control
T/C [14]: 100 % of control
T/C [15]: 111 % of control
T/C (endpoint: mean survival time, dose: 500.0 mg/kg/injection, schedule: Q01DX010 (ip), vehicle: saline): 105 % of control and 88 % of control

COc1ccc(C2NC(C(=O)O)Cc3c2[nH]c2ccccc32)cc1OC (stereo not drawn)
T/C [3]: 96 % of control
T/C [4]: 100 % of control
T/C [5]: 100 % of control
T/C [12]: 100 % of control

C[C@]12C=CC(=O)C=C1CC[C@@H]1[C@@H]2C(=O)C[C@@]2(C)[C@H]1CC[C@]2(O)C(=O)CO
T/C (endpoint: mean survival time, dose: 3.13 mg/kg/injection, schedule: Q01DX010 (sc), vehicle: steriod suspending solution): 99 % of control
T/C (endpoint: mean survival time, dose: 6.25 mg/kg/injection, schedule: Q01DX010 (sc), vehicle: steriod suspending solution): 95 % of control
T/C (endpoint: mean survival time, dose: 10.0 mg/kg/injection, schedule: Q01DX005 (sc), vehicle: steriod suspending solution): 105 % of control and 109 % of control and 100 % of control
T/C [16]: 88 % of control
T/C (endpoint: mean survival time, dose: 50.0 mg/kg/injection, schedule: Q01DX005 (sc), vehicle: steriod suspending solution): 107 % of control and 108 % of control and 110 % of control
T/C (endpoint: mean survival time, dose: 100.0 mg/kg/injection, schedule: Q01DX005 (sc), vehicle: steriod suspending solution): 108 % of control and 99 % of control and 100 % of control
T/C (endpoint: mean survival time, dose: 200.0 mg/kg/injection, schedule: Q01DX005 (sc), vehicle: steriod suspending solution): 86 % of control and 102 % of control
T/C (endpoint: mean survival time, dose: 250.0 mg/kg/injection, schedule: Q01DX005 (sc), vehicle: steriod suspending solution): 90 % of control and 93 % of control

COC(=O)C1C(O)CCC2CN3CCc4c([nH]c5ccccc45)C3CC21 (stereo not drawn)
T/C (endpoint: mean survival time, dose: 2.5 mg/kg/injection, schedule: Q01DX010 (ip), vehicle: saline): 100 % of control
T/C (endpoint: mean survival time, dose: 5.0 mg/kg/injection, schedule: Q01DX010 (ip), vehicle: saline): 100 % of control
T/C (endpoint: mean survival time, dose: 10.0 mg/kg/injection, schedule: Q01DX010 (ip), vehicle: saline): 100 % of control
T/C (endpoint: mean survival time, dose: 20.0 mg/kg/injection, schedule: Q01DX010 (ip), vehicle: saline): 96 % of control

CN1CC[C@]23c4c5ccc(O)c4O[C@H]2C(=O)CC[C@H]3[C@H]1C5
T/C (endpoint: mean survival time, dose: 4.0 mg/kg/injection, schedule: Q01DX010 (ip), vehicle: saline): 100 % of control
T/C [9]: 100 % of control
T/C [10]: 107 % of control and 100 % of control
T/C [11]: 103 % of control

CCC(C)n1ncc2c(N(C)C)ncnc21 (stereo not drawn)
T/C (endpoint: mean survival time, dose: 16.25 mg/kg/injection, schedule: Q01DX010 (ip), vehicle: saline): 107 % of control
T/C (endpoint: mean survival time, dose: 32.5 mg/kg/injection, schedule: Q01DX010 (ip), vehicle: saline): 111 % of control
T/C (endpoint: mean survival time, dose: 65.0 mg/kg/injection, schedule: Q01DX010 (ip), vehicle: saline): 96 % of control

O=C(NCCCCCCNC(=O)OCc1ccccc1)OCc1ccccc1
T/C [3]: 100 % of control
T/C [4]: 96 % of control
T/C [5]: 92 % of control
T/C [12]: 100 % of control

OCn1cccn1
T/C [20]: 124 % of control
T/C (endpoint: mean survival time, dose: 125.0 mg/kg/injection, schedule: Q01DX010 (ip), vehicle: water): 121 % of control
T/C [1]: 118 % of control
T/C [2]: 86 % of control
